Source: patent publication US12617770B2, “IRAK inhibitor and preparation method therefor and use thereof” (WUHAN CREATERNA SCIENCE AND TECHNOLOGY CO., LTD., priority 2019, dated 2026)

Target: T1, CYP3A4 (Homo sapiens, UniProt P08684)
T1 construct: The test compounds were co-incubated with the human liver microsomes and a probe substrate midazolam (CYP3A4); tissue Corning (USA); host or cells: mixed (pooled) human liver microsomes
Assay: Time-dependent inhibition (TDI) of CYP3A4 in human liver microsomes
Format: in vitro ADME
Details: probe substrate midazolam
Method: This study was intended to investigate the time-dependent inhibition effect of the compounds on CYP3A4 in human P450 superfamily. The mixed human liver microsomes used in this assay were purchased from Corning (USA).
The test compounds were co-incubated with the human liver microsomes and a probe substrate midazolam (CYP3A4), and the concentration of the test compounds was set at 30 μM. The reaction was initiated by adding coenzyme NADPH, and terminated by adding acetonitrile dossolved with internal standard in advance. After the proteins were precipitated, the supernatant was centrifuged. The characteristic metabolite 1-hydroxy-midazolam (CYP3A4) in the supernatant was analyzed by LC-MS/MS. The influence of the test compounds on production of the characteristic metabolites was finally analyzed on the basis of the data obtained. A selective inhibitor (verapamil for CYP3A4-M) was used as positive control.

T1 sequence (P08684 whole entry): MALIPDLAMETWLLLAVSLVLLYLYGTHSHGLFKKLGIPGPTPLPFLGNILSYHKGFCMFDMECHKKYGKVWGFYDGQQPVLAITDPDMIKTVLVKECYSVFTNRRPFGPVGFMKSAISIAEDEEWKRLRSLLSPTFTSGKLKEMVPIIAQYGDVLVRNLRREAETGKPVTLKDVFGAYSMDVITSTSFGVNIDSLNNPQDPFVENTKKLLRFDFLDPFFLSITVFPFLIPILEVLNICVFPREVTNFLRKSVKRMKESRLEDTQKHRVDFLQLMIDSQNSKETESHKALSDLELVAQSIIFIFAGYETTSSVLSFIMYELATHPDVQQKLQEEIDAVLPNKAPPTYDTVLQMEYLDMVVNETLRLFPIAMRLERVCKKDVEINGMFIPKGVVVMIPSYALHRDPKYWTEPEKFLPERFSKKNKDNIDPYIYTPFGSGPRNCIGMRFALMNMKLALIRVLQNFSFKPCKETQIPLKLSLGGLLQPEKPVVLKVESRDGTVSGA

COc1cc2nn([C@H]3CC[C@](C)(O)CC3)cc2cc1NC(=O)c1cccc(C)[n+]1[O-] [Compound 001, 2-((2-((1r,4r)-4-hydroxy-4-methylcyclohexyl)-6-methoxy-2H-indazol-5-yl)carbamoyl)-6-methylpyridine 1-oxide]
TDI (3A4, 30 μM): −3.68%
